Results: patent US10189796B2, “[4-(1,3,3-trimethyl-2-oxo-3,4-dihydro-1H-quinoxalin-7-yl)phenoxy]ethyloxy compound or salt thereof” (SANTEN PHARMACEUTICAL CO., LTD., priority 2015, dated 2019)

What was measured:
[1] = test system: carrageenin-caused conjunctivitis model of rats; test: Conjunctivitis model evaluation test; type: in vivo, rat; conditions: 1% suspension, eye dropped 5 μL five times from 1 hour before to 3 hours after induction
Description: In order to evaluate an anti-inflammatory action of the present compound to conjunctivitis, an inhibitory effect on edema formation in a carrageenin-caused conjunctivitis model of rats was investigated. Incidentally, this effect was evaluated by calculating an edema formation inhibitory ratio from a weight of the edema in a base agent administered group (control group) and a weight of the edema in the test compound administered group.
A base agent containing a general additive(s) was added to the test compound to prepare test compound suspensions with 0.001% (W/V), 0.003% (W/V), 0.01% (W/V) and 1% (W/V). […]
Four hours after induction, rats under general anesthesia were sacrificed by decapitation method, conjunctival edema areas of both eyes were removed, and the weight of each was measured. The edema formation inhibitory ratio was calculated from the average value of the weight of the edema.
Based on the average value of the weight of the edema of the base agent administered group (control group), the edema formation inhibitory ratio of the test compound suspension eye drop group was calculated by the following calculation formula. […]

[2] = test system: exorbital lacrimal gland-removed rat dry eye model; test: Dry eye syndrome (dry eye) model evaluation test; type: in vivo; conditions: eye drop 5 μL four times a day
[3] = test system: exorbital lacrimal gland-removed rat dry eye model; test: Dry eye syndrome (dry eye) model evaluation test; type: in vivo; conditions: eye drop 5 μL four times a day; remark: listed apart in the source
Description: In order to evaluate the treatment effect of the present compounds on corneal disorder accompanied by dry eye syndrome (dry eye), a treatment effect on corneal disorder in an exorbital lacrimal gland-removed rat dry eye model was investigated. This model was prepared in accordance with the method of Fujihara, et al. (Invest. Ophthalmol. Vis. Sci., 42(1): 96-100 (2001)). Incidentally, this effect was scored according to the method of Murakami et al. (New Ophthalmologist 21(1): 87-90 (2004)), the extent of corneal disorder was scored and the improvement ratio was calculated from the corneal disorder score of the base agent administered group (control group), the corneal disorder score of the test compound administered group and the corneal disorder score of the normal rat.
A base agent containing a general additive(s) was added to the test compound to prepare test compound suspensions with 0.03% (W/V) and 0.1% (W/V). In addition, a base agent was added to the commercially available drug A to prepare a diluted solution with 0.05% (V/V).
• 1) By using male SD rats, somnopentyl was administered to the rats to apply them general anesthesia, exorbital lacrimal glands were removed, and corneal disorder was induced over 8 weeks thereafter. • 2) The test compound suspension was eye-dropped (instillation dose: 5 μL/time) to both eyes four times a day for 14 days. Incidentally, the base agent was similarly eye-dropped to the administered group (control group), and the commercially available drug A and its diluted solution were similarly eye-dropped. • 3) Fourteen days after the start of eye dropping, the cornea was stained with fluorescein. For each of the upper part, the middle part and the lower part of the cornea, scores of the degree of staining with fluorescein were determined according to the following criteria, and an average value of the total of the scores was calculated. Incidentally, 0.5 was set as an intermediate value between each score of 0, 1, 2 and 3. <<Judgement Standard>>
1: Dyeing is sparse, and the dyed portions of each dot are separated
2: Dyeing is a middle degree and part of the dotted dyed portions is adjacent
3: Dyeing is dense, and the dyed portions of each point are almost adjacent
(Calculation Formula) Corneal disorder improvement ratio (%) of the test compound administered group=(Ao−Ax)/(Ao−An)×100 • Ao: Average value of corneal disorder score of the base agent administered group (control group) • Ax: Average value of corneal disorder score of the test compound administered group • An: Average value of corneal disorder score of normal rat (Test Result and Consideration)

[4] = test system: paracentesis induced intraocular inflammation model of rabbits; test: Anterior eye inflammation model evaluation test; type: in vivo, rabbit; conditions: 3% (W/V) suspension, eye dropped 50 μL four times; 120 minutes after primary puncture
Description: In order to evaluate an anti-inflammatory action of the present compound on anterior eye inflammation, an inhibitory effect on a number of infiltrated cells into aqueous humor in a paracentesis induced intraocular inflammation model of rabbits was investigated. Incidentally, this effect was evaluated by calculating an inhibitory ratio from a number of infiltrated cells into aqueous humor in the base agent administered group (control group) and a number of infiltrated cells into aqueous humor in the test compound administered group.
A base agent containing a general additive(s) was added to the test compound to prepare a test compound suspension with 3% (W/V).
• 1) Male JW rabbits underwent local anesthesia with 0.4% oxybuprocaine hydrochloride (trade name: Benoxil ophthalmic solution 0.4%), and about 0.1 mL of anterior aqueous humor was collected by using a syringe for tuberculin so as not to touch the iris to carry out primary puncture, whereby an inflammatory response was induced. • 2) Thirty minutes before the primary puncture, heparin was intravenously administered so as to be about 50 unit/kg. • 3) The test compound suspension was eye dropped (instillation dose: 50 μL/time) to both eyes in total four times, 210 minutes before, 60 minutes before, 15 minutes after, and 90 minutes after the primary puncture. […]

Compound | Edema formation inhibitory ratio (%) [1] | Corneal disorder improvement ratio (%) After 7 days eye dropping ([2]; 0.03%) | Corneal disorder improvement ratio (%) After 7 days eye dropping ([2]; 0.1%) | Corneal disorder improvement ratio (%) After 14 days eye dropping ([3]; 0.03%) | Corneal disorder improvement ratio (%) After 14 days eye dropping ([3]; 0.1%) | inhibitory ratio (%) of the number of infiltrated cells into aqueous humor [4]
COc1ccc(O)cc1-c1ccc2c(c1COc1cc(F)ccc1C)N(C)C(=O)C(C)(C)N2 [Control compound C, 8-(5-fluoro-2-methylphenoxymethyl)-7-(5-hydroxy-2-methoxyphenyl)-1,3,3-trimethyl-3,4-dihydro-1H-quinoxalin-2-one] | 14% | – | – | – | – | –
COc1cc(OC[C@H](C)OC(=O)CN(C)C)ccc1-c1ccc2c(c1COc1cc(F)ccc1C)N(C)C(=O)C(C)(C)N2 [Compound 11-1, (S)-7-[4-[2-(N,N-dimethylaminoacetoxy)propyl]oxy-2-methoxyphenyl]-8-(5-fluoro-2-methylphenoxymethyl)-1,3,3-trimethyl-3,4-dihydro-1H-quinoxalin-2-one] | – | 35% | 44% | 33% | 64% | 37%
